From PMC9838834, “Improvement of Antialveolar echinococcosis efficacy of novel Albendazole-Bile acids Derivatives with Enhanced Oral Bioavailability” (PLOS Neglected Tropical Diseases, 2023)
Entries after “also recorded” stand apart in the source; their conditions may differ. Read-outs that look alike come from different tables or passages of the source.

What was measured:
[1] = Systemic pharmacokinetics in SD rats (UHPLC-MS); type: in vivo, Sprague-Dawley (SD) rats; details: for Cmax: po, 25 mg/kg
Description: A Dionex Ultimate 3000 RSLC system (Thermofisher) combined with an Accucore aQ C18 column (150 mm×2.1 mm, 2.6 μm, Thermo fisher) was used in the sample separation process. The separation speed was set at […] for all gradients. 1 μL of injection volume and a constant temperature of (25 ± 1°C were set for the column. The eluents were A, water with 0.1% formic acid (v/v) and B, methanol; the gradient program was as follows: 0–6 min, 8–40% B; 6–8 min, 40–100% B; 8–10 min, 100% B; 10–11 min, 100–8% B; 11–13 min, 8% B.
Heated electro-spray ionization (HE-SI) was paired with a Q-Orbitrap MS in the MS analysis. The flow rate of auxiliary, sheath and sweep gas was set at 35, 10, and 1 (arbitrary unit), respectively. A full MS-ddMS^2 mode was used to perform the analysis. The damping gas in the C-trap and nitrogen was used to stabilize the spraying. Temperatures of 350°C and 320°C were set and kept for the auxiliary gas heater and capillary. Under negative mode, 3.0 kV was adopted for the spray voltage, 60 V was used for the S-lens RF level, 50 ms was used for the maximum injection time, and 3.0 ^e6 was set as the automatic gain control target. Full MS-ddMS^2 scan ranged from 150.0000 to 800.0000 m/z. Precise molecular weight […] was used for qualitative analysis, the corresponding peak area was used for quantitative analysis, and MS^2 fragments were used for further qualitative analysis.
A cross-over design was employed with male SD rats (n = 7) to evaluate in vivo pharmacokinetics. The rats were subjected to fasting for one night before each administration and were fed 4 hours after administration. ABZ was administered by gavage (25 mg/kg). Blood was collected under isoflurane anesthesia at a flow rate of 2.0 mL/min. At 0.25, 0.5, 1, 2, 2.5, 3, 4, 6, 8, 12, and 24 hours after administration, 200–500 μL blood was collected from the orbital venous plexus and centrifuged at 13000 rpm for 5 min. The upper plasma was stored at—80°C for testing.
Plasma samples were thawed at room temperature, and 100 μL was added to an equal volume of mass spectrometry grade methanol, vortexed for 1 min, and centrifuged again at 13000 rpm for 5 min. 100 μL of the supernatant were added to 100 μL of 200 ng/mL mebendazole IS solution, vortexed for 1 min, and centrifuged again at 13000 rpm for 5 min. The resulting sample was injected by UHPLC-HR-ESI-MS with an injection volume of 1 μL. The pharmacokinetic study of SD rats was performed according to the standards recommended by the "Guidelines for the Care and Use of Laboratory Animals" (Animal Laboratory Resources Institute, 1995) and was approved by the Institutional Animal Care and Use Committee of Qinghai University.

[2] = Wide-angle x-ray diffraction (WAXRD) of powders; type: physicochemical; details: powder, 2θ 5 to 35°
Description: The ABZ and ABZ-BA powders were characterized by an X’Pert3 Powder X-ray diffractometer (PANalytical, Inc. U.K.), a voltage of 40 kV, and a current of 40 mA. The samples were scanned from 2θ = 5 to 35° at a scanning speed of 1°/min, and the step size was at 0.01° 2θ [10].

[3] = test system: protoscolex (PSCs); assay: Protoscolex microstructure by optical microscope and SEM; type: cell-based, E. multilocularis; details: 5 days after treatment
Source text: (§1) Protoscoleces (PSCs) from E. multilocularis were collected aseptically from alveolar echinococcosis obtained from the abdominal cavity of gerbils in Qinghai Research Key Laboratory for Echinococcosis, China. The specific operation steps were as follows: (1) dissect the successfully preserved Echinococcus protoscoleces gerbil model, isolate cysts and wash the residual liver tissue and blood with sterile Penicillin-Streptomycin solution (penicillin (1500 U/ mL) + streptomycin (1000 U/ mL)). (2) Place the clean cysts in sterile glassware, cut them into a slurry, filter the original head section with sterile gauze, and rinse them with Penicillin-Streptomycin solution 3 times. (3) Slightly rotate and shake the filtrate, absorb the suspended connective tissue, impurities, inactivated PSCs, and excess Penicillin-Streptomycin solution in the upper layer, repeat several times and finally concentrate the pure PSCs into the test tube. Viability was assessed by muscular movement (evaluated under an optical microscope), the motility of flame cells, and the exclusion test with methylene blue. The PSCs were incubated in an RPMI 1640 medium containing 0.20 mg/mL liver homogenous serous, 100 U/mL penicillin, 100 μg/mL streptomycin and 10% calf serum at 37°C in a 5% CO2 atmosphere at a concentration of (1000–2000) PSCs/mL.
(§2) The PSCs were divided into blank control groups (Groups 1 and 2), positive control groups (Groups 3 and 4), and experimental groups (Groups 5 to 7). Group 1 was RPMI-1640 medium with 0.20 mg/mL liver homogenate; Group 2 was 0.2% DMSO medium with 0.2% DMSO; Group 3 was RPMI-1640 medium with 0.20 mg/mL liver homogenate and 0.2% DMSO, containing 10 μg/mL Albendazole; Group 4 was RPMI-1640 medium with 0.20 mg/mL liver homogenate and 0.2% DMSO, containing 10 μg/mL albendazole sulfoxide; Groups 5–7 were RPMI-1640 medium with 0.20 mg/mL liver homogenate and 0.2% DMSO, containing 13.45, 26.9 and 53.8 μg/mL ABZ-BA, with effective ABZ concentrations of 5, 10 and 20 μg/mL, respectively. The culture medium and drug were changed every 3 days for one week. PSCs samples (10 μL) were collected every day and stained with 0.4% trypan blue staining solution, observed under an inverted microscope, and photographed to record PSC mortality.
For ultrastructural studies, 200 μL PSCs were taken from each group 5 days after treatment and fixed with 4% glutaraldehyde in sodium cacodylate buffer at 4°C for 72 hours. Samples were dehydrated by continuous incubation in increasing concentrations of ethanol (50–100%), and ethanol was removed by supercritical extraction. They were then sputter-coated with gold (100 Å thick) and examined on an FEI Quanta 200 scanning electron microscope operating at 20 kV.

[4] = Water solubility, stated in response to reviewers; type: physicochemical
Source text: ABZ and ABZ-BA are both water-insoluble, so we suspended the drug in a 0.5% sodium carboxymethyl cellulose (CMC-Na) aqueous solution. This method of administration has been widely used for the oral administration of poorly soluble drugs. This method has been adopted by our research group in previous studies, and many studies have been published that use this method, including the following: […]

[5] = test system: protoscolex (PSCs); assay: Detection of protoscolex mortality / survival rate in vitro (trypan blue); type: cell-based, E. multilocularis; details: for inhibitory effect on PSC survival rate: 7 days, ABZ 10 μg/mL, ABZ-SO 10 μg/mL, ABZ-BA 13.45, 26.9, 53.8 μg/mL, liver homogenate + 0.2% DMSO, n = 3
Source text: as §1, §2

[6] = test system: alveolar echinococcosis; parameters: method as in PMID 18938096; details: AE patients; cited from earlier work

Structure (SMILES): CCCSc1ccc2[nH]c(NC(=O)NCCCCOC(=O)CCC(C)C3CCC4C5C(O)CC6CC(O)CCC6(C)C5CC(O)C34C)nc2c1 (stereo not shown) [ABZ-BA]
- detectability in blood after oral administration for 8 hours ([1]; SD rats, oral 25 mg/kg): easily detected
- pharmacokinetic behavior compared with Albenda ([1]; rat, in vivo): superior to that of Albenda
- physical state (WAXRD) [2]: amorphous
- PSC morphology, lowest concentration ([3]; ABZ-BA 13.45 μg/mL): obvious shrinkage at the lowest concentration, but the suckers were still clearly visible
- PSC morphology, intermediate and high concentration ([3]; ABZ-BA 26.9 and 53.8 μg/mL): strikingly distinct from their original form, appearing in a disc state after death
- water solubility [4]: water-insoluble
- inhibitory effect on PSC survival rate [5]: time and concentration-dependent inhibitory effects
- inhibitory effect / killing ability on PSCs compared with ABZ ([5]; in vitro): identical to that of ABZ; also recorded: the same as that of ABZ

Structure (SMILES): CCCSc1ccc2nc(NC(=O)OC)[nH]c2c1 [ABZ, Albendazole]
- clinical improvement after administration [6]: two-thirds of AE patients show moderate improvement
- Cmax ([1]; male, Sprague-Dawley, rat, in vivo, SD rats, oral 25mg/kg of API): 76.4 ± 7.62 ng/mL
- Cmax ([1]; male, Sprague-Dawley, rat, in vivo, SD rats, oral 25 mg/kg, n = 7, Table 2): 8.44 ± 3.6 ng/mL
- Tmax ([1]; male, Sprague-Dawley, rat, in vivo, SD rats, oral 25 mg/kg, n = 7): 10.9 ± 1.95 h
- AUC(0-inf) ([1]; male, Sprague-Dawley, rat, in vivo, SD rats, oral 25 mg/kg, n = 7, Abz = ABZ content of ABZ-BA): 101 ± 45.9 ng·h/mL
- AUC(0-t) ([1]; male, Sprague-Dawley, rat, in vivo, SD rats, oral 25 mg/kg, n = 7, Abz = ABZ content of ABZ-BA, read-out: AUC(0–24)): 91.5 ± 42.7 ng·h/mL
- MRT inf ([1]; male, Sprague-Dawley, rat, in vivo, SD rats, oral 25 mg/kg, n = 7, read-out: MRT(0-∞)): 13.9 ± 3.98 h
- MRT last ([1]; male, Sprague-Dawley, rat, in vivo, SD rats, oral 25 mg/kg, n = 7, read-out: MRT(0–24)): 11.6 ± 0.91 h
- Vd/F ([1]; male, Sprague-Dawley, rat, in vivo, SD rats, oral 25 mg/kg, n = 7, read-out: Vz/F): 1990 ± 1620 L/kg
- half-life ([1]; male, Sprague-Dawley, rat, in vivo, SD rats, oral 25 mg/kg, n = 7, read-out: t1/2z (converted)): 5.51 ± 4.27 h
- concentration at 8 h ([1]; male, Sprague-Dawley, rat, in vivo, SD rats, oral 25mg/kg, lower limit of detection, read-out: blood concentration after oral administration for 8 hours): < 1 ng/mL
- physical state (WAXRD) [2]: crystalline
- PSC morphology under the SEM ([3]; 10 μg/mL): elongated and curled up
- PSC morphology under the optical microscope (OM) ([3]; 10 μg/mL): became vacuolar and transparent
- mortality of PSCs ([3]; 10 μg/mL, vs blank groups): significantly higher than in the blank groups
- water solubility ([4]; reason for dosing as suspension in 0.5% CMC-Na): water-insoluble
- inhibitory effect on PSC survival rate [5]: time and concentration-dependent inhibitory effects
